Key:
Type in all cases: cell-based, human
NCl/ADR-RES = assay: NCI60 screening, Ovarian Cancer, NCl/ADR-RES
ACHN = assay: NCI60 screening, Renal Cancer, ACHN
NCI-H522 = assay: NCI60 screening, Non-Small Cell Lung Cancer, NCI-H522
NCI-H226 = assay: NCI60 screening, Non-Small Cell Lung Cancer, NCI-H226
OVCAR-3 = assay: NCI60 screening, Ovarian Cancer, OVCAR-3
SK-MEL-28 = assay: NCI60 screening, Melanoma, SK-MEL-28
MALME-3M = assay: NCI60 screening, Melanoma, MALME-3M
CCRF-CEM = assay: NCI60 screening, Leukemia, CCRF-CEM
OVCAR-5 = assay: NCI60 screening, Ovarian Cancer, OVCAR-5
U0-31 = assay: NCI60 screening, Renal Cancer, U0-31
HL-60(TB) = assay: NCI60 screening, Leukemia, HL-60(TB)
COLO 205 = assay: NCI60 screening, Colon Cancer, COLO 205
PC-3 = assay: NCI60 screening, Prostate Cancer, PC-3
CAKI-1 = assay: NCI60 screening, Renal Cancer, CAKI-1
[1] = Homo sapiens, read-out: LC50 (the source's name)

Cc1ccc2c(c1)c(CO)cn2S(=O)(=O)c1ccc(Cl)c([N+](=O)[O-])c1 [OSU-A9M, [1-(4-chloro-3-nitro-benzenesulfonyl)-5-methyl-1H-indol-3-yl]-methanol]
TGI (NCl/ADR-RES): 3.32E−6
GI50 (NCl/ADR-RES; Homo sapiens): 1810 nM
CC50 (NCl/ADR-RES; [1]): 6090 nM
Percent Growth (NCl/ADR-RES; Log10 Concentration −4.0): −93%
Percent Growth (NCl/ADR-RES; Log10 Concentration −5.0): −91%
Percent Growth (NCl/ADR-RES; Log10 Concentration −6.0): 99%
Percent Growth (NCl/ADR-RES; Log10 Concentration −7.0): 102%
Percent Growth (NCl/ADR-RES; Log10 Concentration −8.0): 96%
TGI (ACHN): 3.14E−6
GI50 (ACHN; Homo sapiens): 1760 nM
CC50 (ACHN; [1]): 5600 nM
Percent Growth (ACHN; Log10 Concentration −4.0): −100%
Percent Growth (ACHN; Log10 Concentration −5.0): −100%
Percent Growth (ACHN; Log10 Concentration −6.0): 99%
Percent Growth (ACHN; Log10 Concentration −7.0): 93%
Percent Growth (ACHN; Log10 Concentration −8.0): 98%
TGI (NCI-H522): 3.54E−7
GI50 (NCI-H522; Homo sapiens): 145 nM
CC50 (NCI-H522; [1]): 861 nM
Percent Growth (NCI-H522; Log10 Concentration −4.0): −96%
Percent Growth (NCI-H522; Log10 Concentration −5.0): −96%
Percent Growth (NCI-H522; Log10 Concentration −6.0): −58%
Percent Growth (NCI-H522; Log10 Concentration −7.0): 71%
Percent Growth (NCI-H522; Log10 Concentration −8.0): 77%
TGI (NCI-H226): 3.32E−6
GI50 (NCI-H226; Homo sapiens): 953 nM
CC50 (NCI-H226; [1]): 17400 nM
Percent Growth (NCI-H226; Log10 Concentration −4.0): −65%
Percent Growth (NCI-H226; Log10 Concentration −5.0): −45%
Percent Growth (NCI-H226; Log10 Concentration −6.0): 49%
Percent Growth (NCI-H226; Log10 Concentration −7.0): 93%
Percent Growth (NCI-H226; Log10 Concentration −8.0): 91%
TGI (OVCAR-3): 4.90E−7
GI50 (OVCAR-3; Homo sapiens): 225 nM
CC50 (OVCAR-3; [1]): 1190 nM
Percent Growth (OVCAR-3; Log10 Concentration −4.0): −100%
Percent Growth (OVCAR-3; Log10 Concentration −5.0): −100%
Percent Growth (OVCAR-3; Log10 Concentration −6.0): −46%
Percent Growth (OVCAR-3; Log10 Concentration −7.0): 102%
Percent Growth (OVCAR-3; Log10 Concentration −8.0): 100%
TGI (SK-MEL-28): 2.91E−6
GI50 (SK-MEL-28; Homo sapiens): 1570 nM
LC50 (SK-MEL-28; Homo sapiens): 5400 nM
Percent Growth (SK-MEL-28; Log10 Concentration −4.0): −100%
Percent Growth (SK-MEL-28; Log10 Concentration −5.0): −100%
Percent Growth (SK-MEL-28; Log10 Concentration −6.0): 87%
Percent Growth (SK-MEL-28; Log10 Concentration −7.0): 89%
Percent Growth (SK-MEL-28; Log10 Concentration −8.0): 93%
GI50 (MALME-3M; Homo sapiens, Malme-3M): 1870 nM
CC50 (MALME-3M; Homo sapiens, Malme-3M, read-out: LC50 (the source's name)): 9000 nM
TGI (MALME-3M; MALME-3M): 4.10E−6
Percent Growth (MALME-3M; MALME-3M, Log10 Concentration −4.0): −75%
Percent Growth (MALME-3M; MALME-3M, Log10 Concentration −5.0): −57%
Percent Growth (MALME-3M; MALME-3M, Log10 Concentration −6.0): 90%
Percent Growth (MALME-3M; MALME-3M, Log10 Concentration −7.0): 78%
Percent Growth (MALME-3M; MALME-3M, Log10 Concentration −8.0): 83%
TGI (CCRF-CEM): 2.58E−6
GI50 (CCRF-CEM; Homo sapiens): 300 nM
CC50 (CCRF-CEM; [1]): 87400 nM
Percent Growth (CCRF-CEM; Log10 Concentration −4.0): −52%
Percent Growth (CCRF-CEM; Log10 Concentration −5.0): −21%
Percent Growth (CCRF-CEM; Log10 Concentration −6.0): 14%
Percent Growth (CCRF-CEM; Log10 Concentration −7.0): 82%
Percent Growth (CCRF-CEM; Log10 Concentration −8.0): 84%
TGI (OVCAR-5): 3.04E−6
GI50 (OVCAR-5; Homo sapiens): 1680 nM
CC50 (OVCAR-5; [1]): 5510 nM
Percent Growth (OVCAR-5; Log10 Concentration −4.0): −100%
Percent Growth (OVCAR-5; Log10 Concentration −5.0): −100%
Percent Growth (OVCAR-5; Log10 Concentration −6.0): 93%
Percent Growth (OVCAR-5; Log10 Concentration −7.0): 92%
Percent Growth (OVCAR-5; Log10 Concentration −8.0): 95%
TGI (U0-31): 3.46E−6
GI50 (U0-31; Homo sapiens): 1830 nM
CC50 (U0-31; [1]): 6540 nM
Percent Growth (U0-31; Log10 Concentration −4.0): −100%
Percent Growth (U0-31; Log10 Concentration −5.0): −83%
Percent Growth (U0-31; Log10 Concentration −6.0): 97%
Percent Growth (U0-31; Log10 Concentration −7.0): 98%
Percent Growth (U0-31; Log10 Concentration −8.0): 87%
TGI (HL-60(TB)): 4.80E−6
GI50 (HL-60(TB); Homo sapiens): 1550 nM
CC50 (HL-60(TB); [1]): 32500 nM
Percent Growth (HL-60(TB); Log10 Concentration −4.0): −67%
Percent Growth (HL-60(TB); Log10 Concentration −5.0): −32%
Percent Growth (HL-60(TB); Log10 Concentration −6.0): 69%
Percent Growth (HL-60(TB); Log10 Concentration −7.0): 84%
Percent Growth (HL-60(TB); Log10 Concentration −8.0): 91%
TGI (COLO 205): 3.14E−6
GI50 (COLO 205; Homo sapiens): 1700 nM
CC50 (COLO 205; [1]): 5790 nM
Percent Growth (COLO 205; Log10 Concentration −4.0): −87%
Percent Growth (COLO 205; Log10 Concentration −5.0): −95%
Percent Growth (COLO 205; Log10 Concentration −6.0): 93%
Percent Growth (COLO 205; Log10 Concentration −7.0): 92%
Percent Growth (COLO 205; Log10 Concentration −8.0): 98%
TGI (PC-3): 4.32E−6
GI50 (PC-3; Homo sapiens): 1620 nM
CC50 (PC-3; [1]): 13900 nM
Percent Growth (PC-3; Log10 Concentration −4.0): −93%
Percent Growth (PC-3; Log10 Concentration −5.0): −43%
Percent Growth (PC-3; Log10 Concentration −6.0): 75%
Percent Growth (PC-3; Log10 Concentration −7.0): 74%
Percent Growth (PC-3; Log10 Concentration −8.0): 80%
TGI (CAKI-1): 2.90E−6
GI50 (CAKI-1; Homo sapiens): 1480 nM
CC50 (CAKI-1; [1]): 5700 nM
Percent Growth (CAKI-1; Log10 Concentration −4.0): −95%
Percent Growth (CAKI-1; Log10 Concentration −5.0): −92%
Percent Growth (CAKI-1; Log10 Concentration −6.0): 79%
Percent Growth (CAKI-1; Log10 Concentration −7.0): 95%
Percent Growth (CAKI-1; Log10 Concentration −8.0): 92%

Reference: patent US8680133B2, “Alkyl indole-3-carbinol-derived antitumor agents” (The Ohio State University Research Foundation, priority 2009, dated 2014)
